For the data set the following is noted: for aqueous solubility: pH 6.8.

In brackets after ≈: the same amount, converted by molar mass.

Regarding `CN(C)C(=O)CN1CCN(C(=O)c2ccc3ccccc3c2O)CC1`, the MDR1-MDCK efflux ratio turned out to be 2.35; the intrinsic clearance, human liver microsomes is no more than 4.74 mL/min/kg; the intrinsic clearance, rat liver microsomes is no more than 10.7 mL/min/kg; the aqueous solubility (as a rule, the dissolved amount per volume that the medium holds) is 43.9 µg/mL (≈ 129 µM).

As for `CN1CCc2nc(C(=O)N[C@H]3C[C@@H](C(=O)N(C)C)CC[C@@H]3NC(=O)C(=O)Nc3ccc(Cl)cn3)sc2C1`, the MDR1-MDCK efflux ratio was 178; the intrinsic clearance, human liver microsomes is no more than 4.74 mL/min/kg; the intrinsic clearance, rat liver microsomes was no more than 10.7 mL/min/kg.

The molecule `c1cncc(-c2ccnn2CN2CCOCC2)c1` showed an aqueous solubility of 17.3 µg/mL (≈ 71 µM).

On to `CCc1nnc(NC(=O)Cc2c(C)noc2C)s1`, for which the MDR1-MDCK efflux ratio stood at 12.8; the intrinsic clearance, human liver microsomes is no more than 4.74 mL/min/kg; the intrinsic clearance, rat liver microsomes was no more than 10.7 mL/min/kg; the aqueous solubility turned out to be 44.6 µg/mL (≈ 167 µM).

`Cc1nc(N2CCN(C)CC2)nc(C)c1NC(=O)C1CCCCC1`: the MDR1-MDCK efflux ratio was 3.54; the intrinsic clearance, human liver microsomes is no more than 4.74 mL/min/kg; the intrinsic clearance, rat liver microsomes was no more than 10.7 mL/min/kg; the aqueous solubility was determined as 60 µg/mL (≈ 181 µM).

As to `Nc1ccccc1-c1nc(C2CC2)no1`, the intrinsic clearance, human liver microsomes amounted to 322 mL/min/kg and the intrinsic clearance, rat liver microsomes worked out at 754 mL/min/kg.

With `CCc1c(O)cc(O)c(C(=O)c2ccc(OCCN3CCOCC3)c(OC)c2)c1CC(=O)N(CCOC)CCOC`, the MDR1-MDCK efflux ratio worked out at 7.53; the intrinsic clearance, human liver microsomes amounted to 28.1 mL/min/kg; the intrinsic clearance, rat liver microsomes was found to be 209 mL/min/kg.

Take `O=C1CCCN1C(=O)COc1cccc(-c2nnco2)c1`: the MDR1-MDCK efflux ratio turned out to be 0.91; the intrinsic clearance, human liver microsomes was no more than 4.74 mL/min/kg; the intrinsic clearance, rat liver microsomes worked out at 27.5 mL/min/kg; the aqueous solubility was 54.9 µg/mL (≈ 191 µM).

As for `CCC[C@@H]1C[C@@H](C(=O)N[C@@H]([C@H]2O[C@H](SC)[C@H](O)[C@@H](O)[C@@H]2O)[C@@H](C)O)N(C)C1`, the MDR1-MDCK efflux ratio amounted to 2.51; the intrinsic clearance, human liver microsomes was 13.3 mL/min/kg; the intrinsic clearance, rat liver microsomes stood at 88.3 mL/min/kg.

As to `O=C1CNC(=O)N1CCCN1CCc2sccc2C1`, the MDR1-MDCK efflux ratio worked out at 1.52; the intrinsic clearance, human liver microsomes is no more than 4.74 mL/min/kg; the intrinsic clearance, rat liver microsomes worked out at 28.6 mL/min/kg; the aqueous solubility was determined as 51.2 µg/mL (≈ 183 µM).

Consider `Cc1c(C(=O)Nc2cnccn2)cccc1-c1ccccn1`, for which the intrinsic clearance, human liver microsomes was no more than 4.74 mL/min/kg and the intrinsic clearance, rat liver microsomes came out at 496 mL/min/kg.

Consider `O=c1c2c(C(F)(F)F)cccc2ncn1CCc1ncc[nH]1`, for which the MDR1-MDCK efflux ratio amounted to 15.6; the intrinsic clearance, human liver microsomes stood at 10.7 mL/min/kg; the intrinsic clearance, rat liver microsomes was found to be 257 mL/min/kg.

Consider `CN(C)C(=O)Cc1nc(-c2cc3cc(Cl)ccc3o2)cs1`, for which the aqueous solubility came to 2.41 µg/mL (≈ 7.51 µM).

The molecule `c1ccc2nc(N3CCC(c4nc5ccccc5[nH]4)CC3)cnc2c1` returned an aqueous solubility of 2.4 µg/mL (≈ 7.29 µM).

With `COc1ccccc1-n1cc(CNC(=O)N(C)Cc2c(C)nn(C)c2C)cn1`, the MDR1-MDCK efflux ratio stood at 54.7; the intrinsic clearance, human liver microsomes came out at 75.5 mL/min/kg; the intrinsic clearance, rat liver microsomes amounted to 511 mL/min/kg.

As to `O=C(NCC1(c2ccc(F)cc2)CCOCC1)c1ccccn1`, the MDR1-MDCK efflux ratio is 0.793; the intrinsic clearance, human liver microsomes came to 11.6 mL/min/kg; the intrinsic clearance, rat liver microsomes is 449 mL/min/kg; the aqueous solubility was 50 µg/mL (≈ 159 µM).

Take `O=C(Nc1cncc(Cl)c1Cl)c1cccc(-n2cccn2)n1`: the MDR1-MDCK efflux ratio was determined as 0.09; the intrinsic clearance, human liver microsomes came out at 99 mL/min/kg; the intrinsic clearance, rat liver microsomes worked out at 149 mL/min/kg.

`c1cnc(-n2cccn2)c(CNC2CCCC2)c1`: the MDR1-MDCK efflux ratio came out at 0.951; the intrinsic clearance, human liver microsomes was no more than 4.74 mL/min/kg; the intrinsic clearance, rat liver microsomes came to 40.3 mL/min/kg; the aqueous solubility is 30.4 µg/mL (≈ 125 µM).

Turning to `Cc1cccc(Nc2ccc(C3CCN(C(=O)c4cc5cc(F)ccc5n4C)CC3)nc2)n1`, the MDR1-MDCK efflux ratio is 1.5 and the aqueous solubility came to 0.19 µg/mL (≈ 0.428 µM).
